Measurements from patent publication US12540134B2, “Inhibitors of adrenoreceptor ADRAC2” (Bayer Aktiengesellschaft, priority 2019, dated 2026).

Biological target: T1, human ADRA2C receptor (Homo sapiens (Human), UniProt P18825)
Assay: In vitro activity assay, inhibition of recombinant ADRA2C (CHO-K1 cells coexpressing Gαq and aequorin, noradrenaline-induced bioluminescence)
Assay type: cell-based
Conditions: inhibition of agonist (noradrenaline)-induced bioluminescence signal; some values are means of multiple determinations; read-out: ARα2C IC50
Experimental: B-2. In Vitro Activity Assay to Determine the Inhibition of Recombinant ADRA2C
The human ADRA2C receptor belongs to the G protein (guanine-dependent protein)-coupled receptors, the main function of which is the transduction of signals into the interior of the cell.
The investigations of the inhibition of the recombinant human ADRA2C receptors were carried out with stably transfected CHO-K1 cells coexpressing the Gαq protein and the calcium-sensitive photoprotein aequorin. In this recombinant system, binding of the agonists noradrenaline to the ADRA2C receptor leads, after activation of a signal cascade, to calcium release from intracellular stores, which is detected by the intracellular calcium sensor aequorin as a bioluminescent signal. The method is described in detail in the reference below. [Wunder F., Kalthof B., Muller T., Hueser J. Functional Cell-Based Assays in Microliter Volumes for Ultra-High Throughput Screening. Combinatorial Chemistry & High Throughput Screening, Volume 11, Number 7, 2008, pp. 495-504(10). doi.org/10.2174/138620708785204054]
The activity of the test substances was determined via their ability to inhibit the agonist-induced increase of the bioluminescence signal. The concentration which can block half of this signal increase is referred to as IC50. The IC50 value is calculated using the 4 parameter logistic function (Hill function):
Top=upper threshold, Bottom=lower threshold, Slope=slope, IC50=turning point

T1 sequence (P18825 whole entry): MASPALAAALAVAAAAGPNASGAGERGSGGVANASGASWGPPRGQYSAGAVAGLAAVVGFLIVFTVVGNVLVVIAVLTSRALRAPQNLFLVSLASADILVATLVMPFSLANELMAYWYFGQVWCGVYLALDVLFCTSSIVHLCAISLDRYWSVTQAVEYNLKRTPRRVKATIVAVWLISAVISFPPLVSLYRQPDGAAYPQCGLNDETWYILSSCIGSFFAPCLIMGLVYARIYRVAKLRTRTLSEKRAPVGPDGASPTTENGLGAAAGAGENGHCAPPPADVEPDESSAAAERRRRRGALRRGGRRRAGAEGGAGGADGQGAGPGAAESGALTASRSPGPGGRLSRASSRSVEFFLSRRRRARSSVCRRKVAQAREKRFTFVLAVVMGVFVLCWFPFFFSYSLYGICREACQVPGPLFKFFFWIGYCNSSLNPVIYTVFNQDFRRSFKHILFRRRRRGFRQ

Row | IC50 [nM] | SMILES
1 | 489 | C[C@@H]1CCCN(C2CCN(c3ncc(C(=O)Nc4ccc(F)cc4Cl)s3)CC2)C1 [Example 88, N-(2-chloro-4-fluorophenyl)-2-[(3R)-3-methyl[1,4′-bipiperidin]-1′-yl]-1,3-thiazole-5-carboxamide]
2 | 261 | O=C(NCc1ncc(F)cc1F)c1cnc(N2CCC(N3CCC[C@@H](C(F)(F)F)C3)CC2)s1 [Example 43, N-[(3,5-Difluoropyridin-2-yl)methyl]-2-[(3R)-3-(trifluoromethyl)[1,4′-bipiperidin]-1′-yl]-1,3-thiazole-5-carboxamide]
3 | 23 | O=C(NCc1ncc(F)cc1F)c1cnc(N2CCCC(N3CCCC4(CC4)C3)CC2)s1 (racemic) [Example 153, rac-2-[4-(5-Azaspiro[2.5]octan-5-yl)azepan-1-yl]-N-[(3,5-difluoropyridin-2-yl)methyl]-1,3-thiazole-5-carboxamide]
4 | 6.5 | O=C(NCc1ncc(F)cc1F)c1cnc(N2CCC(N3CCCC(C4CCC4)C3)CC2)s1 (racemic) [Example 138, 2-(3-cyclobutyl[1,4′-bipiperidin]-1′-yl)-N-[(3,5-difluoropyridin-2-yl)methyl]-1,3-thiazole-5-carboxamide]
5 | 98 | C[C@@H]1CCCN(C2CCN(c3nc(C(=O)NCc4ncc(F)cc4F)cs3)CC2F)C1 (single isomer, unassigned) [Example 158]
6 | 24 | CC1CN(c2ncc(C(=O)NCc3ncc(F)cc3F)s2)CCC1N1CCC[C@@H](C)C1 (single isomer, unassigned) [Example 164]
7 | 19 | O=C(NCc1ncc(F)cc1F)c1cnc(N2CCC(N3CCCC(C4CC4)C3)CC2)s1 (racemic) [Example 137, 2-(3-cyclopropyl[1,4′-bipiperidin]-1′-yl)-N-[(3,5-difluoropyridin-2-yl)methyl]-1,3-thiazole-5-carboxamide]
8 | 2.7 | C[C@@H]1CCCN(C2CCN(c3nc(C(=O)NCc4ncc(F)cc4F)cs3)CC2F)C1 (single isomer, unassigned) [Example 157]
9 | 410 | CC1CN(c2ncc(C(=O)NCc3ncc(F)cc3F)s2)CCC1N1CCC[C@@H](C)C1 (single isomer, unassigned) [Example 165]
10 | 640 | C[C@@H]1CCCN(C2CCN(c3ncc(C(=O)NCc4cccc(C(F)(F)F)n4)s3)CC2)C1 [Example 32]
11 | 1.3 | COCCC1CCCN(C2CCN(c3ncc(C(=O)NCc4ncc(F)cc4F)s3)CC2)C1 (racemic) [Example 148, N-[(3,5-difluoropyridin-2-yl)methyl]-2-[3-(2-methoxyethyl)[1,4′-bipiperidin]-1′-yl]-1,3-thiazole-5-carboxamide]
12 | 810 | CCC1CN(c2ncc(C(=O)NCc3ncc(F)cc3F)s2)CCC1N1CCC[C@@H](C)C1 (single isomer, unassigned) [Example 162]
13 | 660 | C[C@@H]1CCCN(C2CCN(c3nnc(C(=O)NCc4ncc(F)cc4F)s3)CC2)C1 [Example 152, N-[(3,5-difluoropyridin-2-yl)methyl]-5-[(3R)-3-methyl[1,4′-bipiperidin]-1′-yl]-1,3,4-thiadiazole-2-carboxamide]
14 | 35 | CC(C)(C)C1CCCN(C2CCN(c3ncc(C(=O)NCc4ncc(F)cc4F)s3)CC2)C1 (racemic) [Example 149, 2-(3-tert-butyl[1,4′-bipiperidin]-1′-yl)-N-[(3,5-difluoropyridin-2-yl)methyl]-1,3-thiazole-5-carboxamide]
15 | 25 | C[C@@H]1CCCN(C2CCN(c3nc(C(=O)NCc4ncc(F)cc4F)co3)CC2F)C1 (single isomer, unassigned) [Example 159]
16 | 480 | CCC1CN(c2ncc(C(=O)NCc3ncc(F)cc3F)s2)CCC1N1CCC[C@@H](C)C1 (single isomer, unassigned) [Example 163]
17 | 435 | C[C@@H]1CCCN(C2CCN(c3nc(C(=O)NCc4ncc(F)cc4F)co3)CC2F)C1 (single isomer, unassigned) [Example 160]
18 | 36 | O=C(NCc1ncc(F)cc1F)c1cnc(N2CCCC(N3CCCC4(C3)CC4(F)F)CC2)s1 (stereo not drawn) [Example 156, diamix-2-[4-(1,1-Difluoro-5-azaspiro[2.5]octan-5-yl)azepan-1-yl]-N-[(3,5-difluoropyridin-2-yl)-methyl]-1,3-thiazole-5-carboxamide]
19 | 98.1 | C[C@@H]1CCCN(C2CCN(c3ncc(C(=O)NC[C@H](C)c4ccccc4)s3)CC2)C1 (relative stereo) [Example 83, rel-2-[(3R)-3-methyl[1,4′-bipiperidin]-1′-yl]-N-[(2R)-2-phenylpropyl]-1,3-thiazole-5-carboxamide]
20 | 800 | Cc1ccc([C@@H](C)NC(=O)c2cnc(N3CCC(N4CCC[C@@H](C)C4)CC3)s2)cc1 (relative stereo) [Example 95, rel-2-[(3R)-3-methyl[1,4′-bipiperidin]-1′-yl]-N-[(1R)-1-(4-methylphenyl)ethyl]-1,3-thiazole-5-carboxamide]
21 | 971 | C[C@@H]1CCCN(C2CCN(c3ncc(C(=O)N(C)Cc4cccnc4)s3)CC2)C1 [Example 90, N-methyl-2-[(3R)-3-methyl[1,4′-bipiperidin]-1′-yl]-N-(pyridin-3-ylmethyl)-1,3-thiazole-5-carboxamide]
22 | 233 | CC1CC(N2CCC[C@@H](C)C2)CCN1c1ncc(C(=O)NCc2ncc(F)cc2F)s1 (single isomer, unassigned) [Example 161]

Row | SMILES | IC50 [nM]
23 | CC(NC(=O)c1cnc(N2CCC(N3CCC[C@@H](C)C3)CC2)s1)c1cc(F)ccc1F (stereo partly drawn) [Example 47, N-[1-(2,5-Difluorophenyl)ethyl]-2-[(3R)-3-methyl[1,4′-bipiperidin]-1′-yl]-1,3-thiazole carboxamide] | 25
24 | C[C@@H]1CCCN(C2CCN(c3ncc(C(=O)NCc4cc(Cl)ccc4F)s3)CC2F)C1 (mixture of isomers) [Example 113, diamix-N-(5-Chloro-2-fluorobenzyl)-2-[(3R)-3′-fluoro-3-methyl[1,4′-bipiperidin]-1′-yl]-1,3-thiazole-5-carboxamide] | 0.61
25 | CC(NC(=O)c1cnc(N2CCC(N3CCC[C@@H](C)C3)CC2)s1)c1cc(F)ccc1F (single isomer, unassigned) [Example 46] | 8.3

Biological target: T1, human ADRA2C receptor
Assay: In vitro radioligand binding study, competition assay with [3H] rauwolscine (Eurofins Panlabs)
Conditions: calculated from IC50 and Kd with the Cheng Prusoff equation; [3H] rauwolscine competition; read-out: hARα2C Ki
Experimental: B-1 In Vitro Radioligand Binding Studies for Determination of the Dissociation Constants Ki at the Human Adrenoreceptor ADRA2C (Eurojins Panlabs Discovery Services, Taiwan, Ltd)
A competition assay based on [^3H] rauwolscine as radioliganden was used to determine the binding affinity of the test substances at the human ADRA2C receptor.
To configure the competition assay, the equilibrium dissociation constant Kd of the radioligand [^3H] rauwolscine was determined in a saturation experiment. To this end, homogenates of CHO-K1 cells recombinantly expressing the human ADRA2C receptor were incubated with increasing concentrations of the radiotracers for 1 h at 4° C. in binding buffer (50 mM Tris-HCl, 1 mM EDTA, pH 7.4). Unspecific binding was determined by addition of an excess of the not radioactively labelled ligand prazosin (10 μM). The radioactivity was determined in a scintiation counter.
The competition experiments were carried out in the presence of 0.5 nM [^3H] rauwolscine and increasing concentrations of the test substances to be characterized under the conditions described above.
From the IC50 value measured in the competition experiment and the Kd value from the saturation experiment, the equilibrium constant Ki of the inhibitor, which describes the affinity of the test substances to the receptor, was calculated using the Cheng Prusoff equation [Cheng Y, Prusoff W H. Relationship between the inhibition constant (Ki) and the concentration of inhibitor which causes 50 percent inhibition (ISO) of an enzymatic reaction. […] PMID 4202581 PMID: 4202581].

Row | Ki [nM] | SMILES
26 | 56 | O=C(NCc1ncc(F)cc1F)c1cnc(N2CCC(N3CCC[C@@H](CF)C3)CC2)s1 [Example 41, N-[(3,5-Difluoropyridin-2-yl)methyl]-2-[(3R)-3-(fluoromethyl)[1,4′-bipiperidin]-1′-yl]-1,3-thiazole-5-carboxamide]
27 | 24 | C[C@@H]1CCCN(C2CCN(c3ncc(C(=O)NCc4ncc(F)cc4F)s3)CC2)C1 [Example 1, N-[(3,5-Difluoropyridin-2-yl)methyl]-2-[(3R)-3-methyl[1,4′-bipiperidin]-1′-yl]-1,3-thiazole-5-carboxamide]
28 | 2.8 | O=C(NCc1ncc(F)cc1F)c1cnc(N2CCC(N3CCCC4(CC4)C3)CC2)s1 [Example 64, 2-[4-(5-Azaspiro[2.5]octan-5-yl)piperidin-1-yl]-N-[(3,5-difluoropyridin-2-yl)methyl]-1,3-thiazole-5-carboxamide]
29 | 2.3 | CCOC1CCCN(C2CCN(c3ncc(C(=O)NCc4ncc(F)cc4F)s3)CC2)C1 (single isomer, unassigned) [Example 124, ent-N-[(3,5-Difluoropyridin-2-yl)methyl]-2-(3-ethoxy[1,4′-bipiperidin]-1′-yl)-1,3-thiazole-5-carboxamide]

Same assay, conditions: displacement of 0.5 nM [3H] rauwolscine; homogenates of CHO-K1 cells expressing human ADRA2C; 1 h, 4° C.; read-out: hARα2C IC50

Row | IC50 [nM] | SMILES
30 | 130 | O=C(NCc1ncc(F)cc1F)c1cnc(N2CCC(N3CCC[C@@H](CF)C3)CC2)s1 [Example 41, N-[(3,5-Difluoropyridin-2-yl)methyl]-2-[(3R)-3-(fluoromethyl)[1,4′-bipiperidin]-1′-yl]-1,3-thiazole-5-carboxamide]
31 | 54 | C[C@@H]1CCCN(C2CCN(c3ncc(C(=O)NCc4ncc(F)cc4F)s3)CC2)C1 [Example 1, N-[(3,5-Difluoropyridin-2-yl)methyl]-2-[(3R)-3-methyl[1,4′-bipiperidin]-1′-yl]-1,3-thiazole-5-carboxamide]
32 | 6.2 | O=C(NCc1ncc(F)cc1F)c1cnc(N2CCC(N3CCCC4(CC4)C3)CC2)s1 [Example 64, 2-[4-(5-Azaspiro[2.5]octan-5-yl)piperidin-1-yl]-N-[(3,5-difluoropyridin-2-yl)methyl]-1,3-thiazole-5-carboxamide]
33 | 5.1 | CCOC1CCCN(C2CCN(c3ncc(C(=O)NCc4ncc(F)cc4F)s3)CC2)C1 (single isomer, unassigned) [Example 124, ent-N-[(3,5-Difluoropyridin-2-yl)methyl]-2-(3-ethoxy[1,4′-bipiperidin]-1′-yl)-1,3-thiazole-5-carboxamide]
